Assay results as given in patent US9873683B2, “P2X4 receptor antagonist” (NIPPON CHEMIPHAR CO., LTD., priority 2013, dated 2018).
Where “and” joins values, the source holds several entries; their conditions need not be identical. Identical values can stand only once. Counter-ions that a name gives are not always drawn.

Columns and labels:
[1] = system: mouse neuropathic pain model; assay: Analgesic activity in mouse neuropathic pain model (von Frey filament test); format: in vivo; conditions: for pain threshold of diseased limb (von Frey filament test): oral administration of 30 mg/kg, neuropathic pain model mice, versus vehicle administration group; for analgesic activity: oral administration, mouse neuropathic pain model (FIG. 1)
Protocol: Mouse neuropathic pain model was prepared according to the method of Tozaki-Saitoh H. et al. (Tozaki-Saitoh H., Tsuda M., Miyata H., Ueda K., Kohsaka S. and Inoue K.; P2Y12 Receptors in Spinal Microglia Are Required for Neuropathic Pain after Peripheral Nerve Injury. Neuroscience, 28(19): 4949-4956 (2008)). Under isoflurane anesthesia, back hair of mice was extensively shaved, the shaved parts were wiped with rubbing alcohol, and the mice were fixed in the prone position on a heating pad. The skins were cut and opened along the dorsal median line on the upper and lower sides of the head end of the sacroiliac bone in a length of about 1 cm each, with confirming the head end of the bone with fingers. The left lateral paravertebral muscle was separated in the sacral region, and then the ligament was separated. The sacroiliae rim and the upper part thereof were cut and opened along the pyramid, and the transverse process of the first sacral vertebra (S1) was confirmed. The transverse process of S1 was removed, the fourth lumber nerve (L4) running just under the transverse process was confirmed and cut, and the operative wound was sutured.
The pain threshold (paw withdrawal threshold (g)) was measured by stimulating the soles of mice with each of seven von Frey filaments (Stoelting Co., TOUCH-TEST SENSORY EVALUATOR) that gave different stimulation strengths, and determining presence or absence of withdrawal response. The 50% threshold was calculated according to the up down method with reference to the method of Chaplan et al. (Chaplan S R, Bach F W, Pogrel J W, Chung J M, Yaksh T L: Quantitative assessment of tactile allodynia in the rat paw, J. Neurosci. Method, 53:55-63 (1994)).
For evaluation of efficacy, each of the compounds described in Examples 21 and 42 was orally administered to the neuropathic pain model mice with a sonde for oral administration in mice, and effect thereof on the pain threshold measured in the von Frey filament test was observed.

human P2X4 receptor = human P2X4 receptor (Homo sapiens (Human), UniProt Q99571); assay: P2X4 receptor antagonist activity (ATP-induced intracellular calcium, Fura-2 AM); format: cell-based; conditions: 1321N1 cells stably expressing human P2X4 receptor; test substance 15 minutes before addition of ATP; Fura-2 AM F340/F380; read-out: Inhibitory activity IC50
Protocol: The ATP receptor (human P2X4) was introduced into the 1321N1 cells, and the cells were used as a stable ATP receptor expression system. The P2X4-expressing 1321N1 cells were seeded on a 96-well plate, cultured under the conditions of 37° C. and 5% CO2 for 24 hours, and used for calcium measurement. […] For the measurement, a microplate reader, Fluostar Optima (BMG Labtech), was used. The light emitted from a xenon lamp was passed through 340 nm and 380 nm filters, respectively, and irradiated on the cells, fluorescences of 510 nm, F340 and F380, emitted from the cells were measured, and change of the ratio F340/F380 was used as an index of change of intracellular calcium level. The measurement was performed by adding ATP to each well at a final concentration of 1 μM, and observing the ATP-induced Ca^2+ response over time.
The 1321N1 cells stably expressing human P2X4 receptor were seeded on a 96-well plate, cultured under the conditions of 37° C. and 5% CO2 for 24 hours, and then used for intracellular calcium measurement. Fura-2 AM, which is a calcium fluorescent indicator, was used for the intracellular calcium measurement. […] The ratio of fluorescence values obtained with excitation lights of 340 nm and 380 nm was used as an index of the change of intracellular calcium level, and the inhibitory activity of the test substance was calculated on the basis of the comparison with the value obtained in the absence of the test substance (control).

human P2X4 receptor, sequence (Q99571 whole entry): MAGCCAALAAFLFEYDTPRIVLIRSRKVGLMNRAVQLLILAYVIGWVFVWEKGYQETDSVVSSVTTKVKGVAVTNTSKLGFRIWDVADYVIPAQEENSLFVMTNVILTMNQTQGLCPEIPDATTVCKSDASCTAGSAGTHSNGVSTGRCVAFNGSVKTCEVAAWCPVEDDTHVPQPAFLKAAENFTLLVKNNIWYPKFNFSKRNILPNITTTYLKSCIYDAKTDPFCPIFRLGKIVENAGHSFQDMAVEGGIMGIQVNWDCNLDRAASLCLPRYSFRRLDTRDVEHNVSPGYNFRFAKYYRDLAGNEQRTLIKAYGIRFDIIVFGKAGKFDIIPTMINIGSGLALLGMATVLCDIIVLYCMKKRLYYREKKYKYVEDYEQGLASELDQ

Cl.O=C1CC(=O)N(c2ccc(-n3ccnc3CCc3ccccc3)cc2)c2ccc3ccccc3c2N1 [Example 21, 5-[4-(2-Phenethyl-1H-imidazol-1-yl)phenyl]-1H-naphtho[1,2-b][1,4]diazepine-2,4(3H,5H)-dione hydrochloride]
pain threshold of diseased limb (von Frey filament test) [1]: increased the pain threshold of diseased limb
analgesic activity [1]: superior analgesic activity
IC50 (human P2X4 receptor): 78 nM

COc1cccc(CCc2nccn2-c2ccc(N3C(=O)CC(=O)Nc4c3ccc3ccccc43)cc2)c1.Cl [Example 42, 5-[4-[2-(3-Methoxyphenethyl)-1H-imidazol-1-yl]phenyl]-1H-naphtho[1,2-b][1,4]diazepine-2,4(3H,5H)-dione hydrochloride]
pain threshold of diseased limb (von Frey filament test) [1]: increased the pain threshold of diseased limb
analgesic activity [1]: superior analgesic activity
IC50 (human P2X4 receptor): 92 nM

CC(C)(Cc1nnnn1-c1ccc(N2C(=O)CC(=O)Nc3c2ccc2ccccc32)cc1)c1ccccn1 [Example 69, 5-[4-[5-[2-Methyl-2-(pyridin-2-yl)propyl]-1H-tetrazol-1-yl]phenyl]-1H-naphtho[1,2-b][1,4]diazepine-2,4(3H,5H)-dione hydrochloride]
IC50 (human P2X4 receptor): 5400 nM

Cc1cccc(C)c1CCc1nccn1-c1ccc(N2C(=O)CC(=O)Nc3c2ccc2ccccc32)cc1 [Example 37, 5-[4-[2-(2,6-Dimethylphenylethyl)-1H-imidazol-1-yl]phenyl]-1H-naphtho[1,2-b][1,4]diazepine-2,4(3H,5H)-dione hydrochloride]
IC50 (human P2X4 receptor): 79 nM

CC1(C)CN(c2ccc(N3C(=O)CC(=O)Nc4c3ccc3ccccc43)cc2)C(CCc2ccccc2)=N1 [Example 74, 5-[4-(4,4-Dimethyl-2-phenethyl-4,5-dihydro 1H-imidazol-1-yl)phenyl]-1H-naphtho[1,2-b][1,4]diazepine-2,4(3H,5H)-dione hydrochloride]
IC50 (human P2X4 receptor): 2500 nM

COc1ccccc1-c1nccn1-c1ccc(N2C(=O)CC(=O)Nc3c2ccc2ccccc32)cc1 [Example 51, 5-[4-[2-(2-Methoxyphenyl)-1H-imidazol-1-yl]phenyl]-1H-naphtho[1,2-b][1,4]diazepine-2,4(3H,5H)-dione]
IC50 (human P2X4 receptor): 1700 nM

O=C1CC(=O)N(c2ccc(-n3ccnc3CCc3cccc(O)c3)cc2)c2ccc3ccccc3c2N1 [Example 43, 5-[4-[2-(3-Hydroxyphenethyl)-1H-imidazol-1-yl]phenyl]-1H-naphtho[1,2-b][1,4]diazepine-2,4(3H,5H)-dione hydrochloride]
IC50 (human P2X4 receptor): 53 nM and 190 nM

NC(=O)c1ccccc1CCc1nccn1-c1ccc(N2C(=O)CC(=O)Nc3c2ccc2ccccc32)cc1 [Example 55, 2-[2-[1-[4-(2,4-Dioxo-3,4-dihydro-1H-naphtho[1,2-b][1,4]diazepin-5(2H)-yl)phenyl]-1H-imidazol-2-yl]ethyl]benzamide]
IC50 (human P2X4 receptor): 340 nM

COc1ccccc1Cc1nnnn1-c1ccc(N2C(=O)CC(=O)Nc3c2ccc2ccccc32)cc1 [Example 1, 5-[4-[5-(2-Methoxybenzyl)-1H-tetrazol-1-yl]phenyl]-1H-naphtho[1,2-b][1,4]diazepine-2,4(3H,5H)-dione]
IC50 (human P2X4 receptor): 25 nM

O=C1CC(=O)N(c2ccc(-n3nnnc3Cc3ccccc3O)nc2)c2ccc3ccccc3c2N1 [Example 11]
IC50 (human P2X4 receptor): 77 nM

NC(=O)c1ccccc1Cn1ccnc1-c1ccc(N2C(=O)CC(=O)Nc3c2ccc2ccccc32)cc1 [Example 53, 2-[[2-[4-(2,4-Dioxo-3,4-dihydro-1H-naphtho[1,2-b][1,4]diazepin-5(2H)-yl)phenyl]-1H-imidazol-1-yl]methyl]benzamide]
IC50 (human P2X4 receptor): 590 nM
